Earlier results on one compound are cited in patent US20140371418A1, “BIOLOGICAL SYNTHESIS OF P-AMINOBENZOIC ACID, P-AMINOPHENOL, N-(4-HYDROXYPHENYL)ETHANAMIDE AND DERIVATIVES THEREOF” (pAromatics, LLC, priority 2012, published 2014).

Molecules are shown by their SMILES.

The test system of data set [1] is bacteria and fungi.

For `Nc1ccc(C(=O)O)cc1` [PABA, p-aminobenzoic acid], the “solubility of PABA in water” value was 0.072 M and about 10 g/L. The “inhibition of growth of bacteria and fungi” value in data set [1] is listed as “inhibits growth”.
